How the values were obtained:
[1] = tested on: diabetes-prone Psammomys obesus; assay: Diabetes-prone Psammomys obesus on high-energy diet treated with phlorizin; type: in vivo
Source text: Animals. Psammomys obesus of both sexes (age 2.0-3.5 months) from the diabetes-prone and diabetes-resistant lines of the Hebrew University colonies were obtained from Harlan (Jerusalem, Israel). After weaning, diabetes-prone Psammomys obesus were maintained on a low-energy diet containing 2.38 kcal/g (Koffolk, Petach Tikva, Israel) until the start of the experiments, whereas diabetes-resistant Psammomys obesus were maintained on a […] (Weizmann Institute, Rehovot, Israel) to identify animals that develop diabetes and exclude them from the study (˜30-40% of the animals in the diabetes-resistant colony). All non-fasted animals with random blood glucose concentrations <7.8 mmol/l (Glucometer Elite, Bayer Diagnostics, Elkart, Ind.) were considered nondiabetic. Diabetes-prone Psammomys obesus switched to a high-energy diet, received an injection of 0.4 g/kg phlorizin (Sigma) or solvent (40% propylene glycol) every 12 h and were killed after 8 days. Psammomys obesus were anesthetized with ketamine (Ketalar, Park-Davis, Gwent, U.K.) and exsanguinated by cardiac puncture. The pancreas was rapidly removed, and immersion-fixed in 10% phosphate-buffered formalin. The animal studies were approved by the Institutional Animal Care and Use Committee of the Hebrew University and the Hadassah Medical Organization.
Detection of IL-1β expressing β-cells. Pancreases from routine necropsies and pancreases from Psammomys obesus were immersion-fixed in formalin, followed by paraffin embedding. Sections were deparaffinized and rehydrated, and endogenous peroxidase blocked by submersion in 0.3% H2O2 for 15 min. Sections were then incubated in methanol for 4 min. After washing with PBS, cultured islets and isolated β-cells were fixed in 4% paraformaldehyde (30 min, room temperature) followed by permeabilisation with 0.5% triton X-100 (4 min, room temperature). Both tissue sections and cultured cells were double-labeled for IL-1β and insulin by 1 h exposure to 10% bovine serum albumin, followed by incubation (1 h, 37° C.) with mouse anti-IL-1β antibody (1:30 dilution, R&D Systems Inc.). Detection was performed using donkey anti-mouse Cy3 conjugated antibody (1:100 dilution, Jackson). Subsequently, specimens were incubated for 30 min at 37° C. with guinea pig anti-insulin antibody diluted 1:50 (Dako, Carpinteria, Calif.), followed by a 30 min incubation with a 1:20 dilution of fluorescein-conjugated rabbit anti-guinea pig antibody (Dako). For positive control of IL-1β staining, human mononuclear cells were isolated as described previously (37) and exposed for 2 h, 37° C. to 1 μg/ml lipopolysaccharide (Difco, Detroit, Ind.). […]

[2] = target: T1, type II IL-1R (Homo sapiens, UniProt P27930); conditions: read-out: Kd, binding to type II IL-1R; cited from earlier work
T1 sequence (P27930 14-398): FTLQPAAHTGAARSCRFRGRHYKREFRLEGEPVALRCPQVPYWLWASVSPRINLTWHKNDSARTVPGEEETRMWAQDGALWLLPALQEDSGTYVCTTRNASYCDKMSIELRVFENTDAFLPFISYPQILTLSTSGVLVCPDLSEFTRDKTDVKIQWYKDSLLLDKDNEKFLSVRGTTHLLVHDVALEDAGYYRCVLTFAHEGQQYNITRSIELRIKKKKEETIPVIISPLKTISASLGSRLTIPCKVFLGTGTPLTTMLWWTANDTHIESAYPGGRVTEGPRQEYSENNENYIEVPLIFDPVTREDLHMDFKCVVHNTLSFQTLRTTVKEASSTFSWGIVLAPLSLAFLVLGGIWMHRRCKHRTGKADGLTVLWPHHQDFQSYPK

[3] = tested on: human islets; assay: Insulin release and content of human islets; type: cell-based; conditions: 33.3 mM glucose or IL-1β, 4 days
Method: (§1) Islet isolation and culture. Islets were isolated from pancreases of eleven organ donors at the Department of Surgery, University of Geneva Medical Center, as described (32-34). The islet purity was >95%, as judged by dithizone staining (if this degree of purity was not primarily achieved by routine isolation, islets were handpicked). […] For long-term in vitro studies, the islets were cultured on extracellular matrix-coated plates derived from bovine corneal endothelial cells (Novamed Ltd., Jerusalem, Israel), allowing the cells to attach to the dishes and spread, preserving their functional integrity (7;35). Islets were cultured in CMRL 1066 medium containing 100 U/ml penicillin, 100 μg/ml streptomycin and 10% fetal calf serum (Gibco, Gaithersburg, Md.), hereinafter referred to as culture medium. Two days after plating, when most islets were attached and began to flatten, the medium was changed to culture medium containing 5.5, 11.1 or 33.3 mM glucose. In some experiments, islets were additionally cultured with 2 ng/ml recombinant human IL-1β, 1000 U/ml recombinant human IFNγ (ReproTech EC Ltd, London, UK), 500 ng/ml IL-1β receptor antagonist (IL-1Ra) (R&D Systems Inc., Minneapolis, Minn.), 1 ng/ml membrane bound Fas-ligand (FasL) (36) (upstate biotechnology, Lake Placid, N.Y.) or with 100 μM pyrrolidinedithiocarbamate (PDTC; Sigma; 2 h per 2 d of culture).
Insulin release and content. To determine acute insulin release in response to glucose stimulation, islets were washed in RPMI 1640 medium with 10% FCS and containing 3.3 mM glucose and pre-incubated for 1 h in the same medium. The medium was then discarded and replaced with fresh medium containing 3.3 mM glucose for 1 h for basal secretion, followed by an additional 1 h incubation in medium containing 16.7 mM glucose. Incubates were collected and frozen for insulin assays. […] Insulin was determined by a human insulin RIA kit (CIS bio international, Gif-Sur-Yvette, France).

[4] = tested on: iNOS; assay: iNOS expression in human islets; type: cell-based; conditions: 33 mM glucose or IL-1β alone, 44 hours
Method: Western blot analysis. Islets were cultured in a culture medium in non-adherent plastic dishes. One day after isolation, the medium was changed and groups of 200 islets were incubated for 44 hours in culture medium containing 5.5 or 33.3 mM glucose without or with 2 ng/ml IL-1β or 500 ng/ml IL-1Ra. At the end of the incubations, islets were washed in PBS, suspended in 50 μl sample buffer containing 125 mM Tris-HCl, pH 6.8, 4% SDS, 10% glycerol, 0.3% bromphenol blue, 1.8% β-mercaptoethanol and boiled for 5 min. Equivalent amounts of each treatment group were run on 15% SDS polyacrylamide gels. […] Intensity of bands was analyzed using Multianalyst™ (Bio Rad, Laboratories inc., Hercules, Calif.).
RNA extraction, RT-PCR and sequencing of RT-PCR product. […] The conditions of the PCR amplification for IL-1β and Fas were: denaturation 30 seconds at 94° C., annealing 30 seconds at 60° C. and elongation 30 seconds at 72° C., followed for real time PCR by quantification 5 seconds at 80° C., 45 cycles. […] For quantitative analysis, we used the Light Cycler quantitative PCR system (Roche, Basel, Switzerland) and performed quantitative PCR with a commercial kit (Light Cycler-DNA Master SYBR Green I; Roche). […]

[5] = in vivo; cited from earlier work
[6] = tested on: human islets β-cells; assay: β-cell apoptosis (TUNEL) and necrosis (propidium iodide) in human islets; type: cell-based; conditions: 33 mM glucose + exogenous FasL
Method: as §1
β-cell apoptosis. The free 3-OH strand breaks resulting from DNA degradation were detected by the terminal deoxynucleotidyl transferase-mediated dUTP nick-end labeling (TUNEL) technique (38). After washing with PBS, cultured islets were fixed in 4% paraformaldehyde (30 min, room temperature) followed by permeabilisation with 0.5% triton X-100 (4 min, room temperature). The TUNEL assay was performed according to the manufacturer's instructions (In Situ Cell Death Detection Kit, AP; Boehringer Mannheim, Germany). […] The samples were immediately evaluated by fluorescence microscopy for positively stained […] nuclei.

[7] = high-energy diet 8 days, 0.4 g/kg phlorizin every 12 h

With `O=C(CCc1ccc(O)cc1)c1c(O)cc(O)cc1O[C@@H]1O[C@H](CO)[C@@H](O)[C@H](O)[C@H]1O` [phlorizin] the “IL-1β expression in β-cells” value [1, 7] was “prevented IL-1β expression”, the “blood glucose (in words)” value [1, 7] was “Normalization of blood glucose” and the “insulin stores of islets” value [1, 7] was “restored insulin stores”. For the same molecule, the blood glucose ([1]; high-energy diet for 8 days with injections of phlorizin) was 5.6 mM.

In the case of Interleukin-1β [IL-1β], the Kd [2] is listed as 0.3 to 2 nM, the “acute glucose-stimulated insulin release after chronic exposure” value [3] is listed as “abolished acute glucose-stimulated insulin release” and the “iNOS mRNA or protein expression” value [4] is listed as “Neither 33 mM glucose nor IL-1β alone induced iNOS mRNA”.

In the case of anakinra, the half-life [5] is given as 4 to 6 h.

B1: FasL: membrane bound Fas-ligand (protein, UniProt P48023 1-281, looked up)
chain: MQQPFNYPYPQIYWVDSSASSPWAPPGTVLPCPTSVPRRPGQRRPPPPPPPPPLPPPPPPPPLPPLPLPPLKKRGNHSTGLCLLVMFFMVLVALVGLGLGMFQLFHLQKELAELRESTSQMHTASSLEKQIGHPSPPPEKKELRKVAHLTGKSNSRSMPLEWEDTYGIVLLSGVKYKKGGLVINETGLYFVYSKVYFRGQSCNNLPLSHKVYMRNSKYPQDLVMMEGKMMSYCTTGQMWARSSYLGAVFNLTSADHLYVNVSELSLVNFEESQTFFGLYKL
modifications: full-length
With B1 the “increase of TUNEL-positive β-cells compared to control at 5.5 mM glucose” value [6] was 3.0+/−0.4 fold.

— patent US7572770B2, “Use of an interleukin 1 receptor antagonist and/or pyrrolidinedithiocarbamate for the treatment or prophylaxis of type 2 diabetes” (University of Zurich, priority 2002, dated 2009)
